The values below are quoted from earlier work in patent US6900339B2, “Bryostatin composition and bryostatin acquisition methodologies” (The University of North Carolina at Chapel Hill, priority 2002, dated 2005).

The data set relates to leukemia. The following applies: background statement.

In the case of `CCC/C=C/C=C/C(=O)O[C@H]1/C(=C/C(=O)OC)C[C@H]2C[C@H]([C@@H](C)O)OC(=O)C[C@H](O)C[C@@H]3C[C@H](OC(C)=O)C(C)(C)[C@](O)(C[C@@H]4C/C(=C/C(=O)OC)C[C@H](/C=C/C(C)(C)[C@]1(O)O2)O4)O3` [bryostatin 1], the effectiveness against leukemia entry is recorded as “particularly effective”.
